The source of these data is EP0316592A2, “3'-Fluoro-2',3'-dideoxyuridine, and its therapeutic application” (Stichting REGA V.Z.W., priority 1987, dated 1989).

Data set [1] addresses T1, bacterial thymidine phosphorylase (Escherichia coli, UniProt P07650).
T1 construct: purchased Sigma Chemical Co., St. Louis, MO
Put plainly: Phosphorolytic cleavage by dThd phosphorylase. The conditions noted are these: for Initial velocity of phosphorolysis: 25°C, 0.1 M sodium phosphate buffer, pH 7.0, N.D. = not detectable with 25 units of enzyme. Format: biochemical. As for the experimental part: Phosphorolytic cleavage of the test compounds was assessed using purified bacterial dThd phosphorylase (Sigma Chemical Co., St. Louis, MO) with the aid of a Beckman spectrophotometer UV/Vis 5200; the absorbance change during the enzyme reaction was continuously monitored at 25°C at the wavelength where the difference of absorption between the nucleoside and its free base was maximal. The reaction mixtures for all the assays consisted of enzyme and non-satura ting concentrations of nucleoside in 0.1 M sodium phosphate buffer, pH 7.0. The initial velocity of phosphorolysis was expressed as nmol/min/enzyme unit.

Data set [2] concerns HIV. The conditions noted are these: MT4 lymphocytes; cited from earlier work.
Another data set concerns the target T2, Molt/4F dCyd kinase (Homo sapiens, UniProt P27707).
T2 construct: endogenous in cells; host or cells: Molt/4F cells (sonicated extract, 30-70% ammonium sulfate fraction, dialyzed)
Put plainly: Inhibition of dCyd kinase (Lineweaver-Burk). Format: biochemical. As for the experimental part:
ddUrd and the 3′-fluoro- and 3′-azido-substituted pyrimidine 2′,3′-dideoxynucleoside analogues were evaluated for their inhibitory effect against dThd and dCyd kinase.
dThd kinase and dCyd kinase were prepared from exponen tially growing Molt/4F cells, which were first washed (2x) with phosphate-buffered saline at 4° and then homogenized by sonication. The suspensions were clarified by centrifugation at 25,000-27,000 x g for 30 min. The 30-70% (NH₄)₂SO₄ precipitate of the supernatant was resuspended in buffer containing 10 uM potassium phosphate, pH 7.5, 10 mM β-mercaptoethanol and 0.1 M KCl, dialyzed against the same buffer, and used for the dThd kinase and the dCyd kinase assays. In these experiments, (2-¹⁴C)dThd and (U-¹⁴C)dCyd served as the radiolabelled substrates. The apparent Km and Ki values were derived from Lineweaver-Burk plots, using a linear regression analysis program. The assay procedures have been described in detail (J. Balzarini et al, (1983) and J. Balzarini et al, Biochem. Pharmacol. 31, 3673-3682 (1982)).

In the next data set the test system is C3H cells. Put plainly: Cytotoxicity for C3H cells (alteration of normal cell morphology). In kind it is cell-based, mouse. As to conditions: alteration of normal cell morphology, C3H cells.
The subject of data set [3] is HIV. As to conditions: ATH8 T-lymphocyte cell line; cited from earlier work.
Data set [4] deals with Moloney murine sarcoma virus (MSV). Put plainly: Inhibition of transformation of C3H cells by MSV. Format: cell-based. As for the experimental part: Moloney murine sarcoma virus (MSV) was prepared from tumors induced by in vivo infection of 10 day-old NMRI mice according to the procedure described by De Clercq et al (Proc. Soc. Exp. Biol. Med. 137, 590-594 (1971)).
ddUrd and the substituted pymiridine 2′,3′-dideoxynucleoside analogues were examined for their inhibitory effect on the transformation of mouse embryo C3H fibroblasts by Moloney murine sarcoma virus (MSV).
C3H cells were seeded at 20,000 cells per ml into wells of Costar Tissue Culture Cluster plates (48 wells per plate) and grown to confluency. Cell cultures were then infected by 150 foci-forming units of MSV during 90 min, whereafter the culture medium was replaced by 1 ml fresh medium containing different concentrations of the test compound. After 6 days, the transformation of the cell cultures was examined microscopically.

T1 sequence (P07650 whole entry): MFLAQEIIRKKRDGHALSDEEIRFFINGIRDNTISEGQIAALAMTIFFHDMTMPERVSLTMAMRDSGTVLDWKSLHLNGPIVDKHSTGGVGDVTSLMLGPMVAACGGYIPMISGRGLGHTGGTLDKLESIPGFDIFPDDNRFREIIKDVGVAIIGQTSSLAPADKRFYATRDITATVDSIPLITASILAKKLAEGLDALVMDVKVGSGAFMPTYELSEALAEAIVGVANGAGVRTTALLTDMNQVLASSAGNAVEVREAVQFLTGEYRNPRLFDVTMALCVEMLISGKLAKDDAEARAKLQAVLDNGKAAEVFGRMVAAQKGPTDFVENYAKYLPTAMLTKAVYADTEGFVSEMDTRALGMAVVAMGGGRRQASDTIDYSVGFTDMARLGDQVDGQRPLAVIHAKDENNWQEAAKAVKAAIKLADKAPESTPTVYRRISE
T2 sequence (P27707 whole entry): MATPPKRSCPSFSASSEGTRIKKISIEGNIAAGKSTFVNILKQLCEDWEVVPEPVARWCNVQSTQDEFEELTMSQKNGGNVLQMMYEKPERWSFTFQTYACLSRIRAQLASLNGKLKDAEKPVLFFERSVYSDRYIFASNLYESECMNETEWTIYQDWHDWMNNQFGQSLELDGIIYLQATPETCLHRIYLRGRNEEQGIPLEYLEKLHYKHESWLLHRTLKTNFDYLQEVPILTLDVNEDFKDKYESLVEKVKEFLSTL

As to `CCc1cn([C@H]2C[C@H](O)[C@@H](CO)O2)c(=O)[nH]c1=O` [dEtUrd], the “Initial velocity of phosphorolysis” value in data set [1] came out at 0.893 nmol/min/unit.

For `Cc1cn([C@H]2C[C@H](N=[N+]=[N-])[C@@H](CO)O2)c(=O)[nH]c1=O` [AzddThd, 3′-azido-2′,3′-dideoxythymidine], the “concentration that protects MT4 cells against HIV” value in the data set on HIV [2] is 0.02 µM.

Regarding `Cc1cn([C@H]2C=C[C@@H](CO)O2)c(=O)[nH]c1=O` [2′,3′-didehydro-2′,3′-dideoxythymidine], the “concentration that protects MT4 cells against HIV” value in the data set with HIV [2] is on record as 0,04 µM.

As to `O=c1ccn([C@H]2C[C@H](O)[C@@H](CO)O2)c(=O)[nH]1` [dUrd], the “Initial velocity of phosphorolysis” value in data set [1] worked out at 361 nmol/min/unit.

Molecule `[N-]=[N+]=N[C@H]1C[C@H](n2ccc(N)nc2=O)O[C@@H]1CO` [AzddCyd, 3′-Azido-2′,3′-dideoxycytidine] had a Ki/Km on Molt/4F dCyd kinase (Km 5.2 to 6.4 µM) of 58. On Molt/4F dCyd kinase (substrate (U-14C)dCyd), this molecule had a Ki of 354 µM. Also, the Type of inhibition result on Molt/4F dCyd kinase (with respect to dCyd) was “competitive”. Besides, the “susceptibility to phosphorolysis by dThd phosphorylase (in words)” value in data set [1] (purified bacterial dThd phosphorylase) is on record as “totally resistant”. The “MSV-induced cyto-pathogenicity CD50” value in the data set with C3H cells is reported as above 400 µM. Besides, the “anti-retroviral effect compared with ddCyd” value with HIV [3] is listed as “much less effective than ddCyd”. Also, in data set [4] (Moloney murine sarcoma virus, 144 h, 50% reduction of transformation of C3H cells by MSV, 6 days, read-out: MSV-induced cyto-pathogenicity ED50), the EC50 was found to be 70 µM. Moreover, in data set [4] (Selectivity index or ratio of CD50 to ED50, C3H cells), the “MSV-induced cyto-pathogenicity S.I.” value is listed as above 5.7.

As to `Cc1cn([C@H]2CC[C@@H](CO)O2)c(=O)[nH]c1=O` [2′,3′-dideoxythymidine], the “concentration that protects MT4 cells against HIV” value with HIV [2] is given as 1 µM.
